Common to all, as to format: ADME, organism-based
In series [1] the test system is Mus musculus. Kind of series: Biodistribution in CD1 mouse frontal cortex at 0.1 mCi, iv at 30 mins by gamma counting. Conditions: in vivo, 0.5 h; call rule not given here.
A further series concerns Thalamus. Kind of series: Biodistribution in CD1 mouse thalamus at 0.1 mCi, iv at 30 mins by gamma counting. Conditions: in vivo, 0.5 h.
In the next series the test system is Striatum. Kind of series: Biodistribution in CD1 mouse striatum at 0.1 mCi, iv at 30 mins by gamma counting. Particulars: in vivo, 0.5 h.
In series [2] the test system is Hippocampus. Description: Biodistribution in CD1 mouse hippocampus at 0.1 mCi, iv at 30 mins by gamma counting. Conditions: in vivo, 0.5 h.
Series [3] relates to Mus musculus. Description: Biodistribution in CD1 mouse frontal cortex at 3.7 MBq, iv after 90 mins in presence of 0.5 mg/kg, sc of PHA543613. Also on record: dose 0.5 mg/kg, route intravenous. Conditions: in vivo, 1.5 h.
Series [4] concerns Hippocampus. Description: Biodistribution in CD1 mouse hippocampus at 3.7 MBq, iv after 90 mins in presence of 0.5 mg/kg, sc of PHA543613. Also on record: dose 0.5 mg/kg, route intravenous. Conditions: in vivo, 1.5 h.

From ChEMBL document CHEMBL2034921, “5-(5-(6-[(11)C]methyl-3,6-diazabicyclo[3.2.0]heptan-3-yl)pyridin-2-yl)-1H-indole as a potential PET radioligand for imaging cerebral α7-nAChR in mice” (Bioorg Med Chem, 2012) come the findings set out here.

For the compound `[11CH3]N1CC2CN(c3ccc(-c4ccc5[nH]ccc5c4)nc3)CC21` (racemic), the Drug uptake entry in the series on Mus musculus [1] is given as “Active”; in the series on Thalamus, “Active”; in the series with Striatum it was “Active”; in the series on Hippocampus [2], “Active”; in the series with Mus musculus [3] it was “Not Active”; with Hippocampus [4], “Not Active”.
